Results: publication PMC12350126, “A novel carboxamide bromodomain inhibitor attenuates osteoarthritis via epigenetic repression of NF-κB and MAPK signaling” (Frontiers in Immunology, 2025)

Tests used:
[1] = test system: IL-1β-induced Mmp3, Mmp13 and Cox2 expression in mouse articular chondrocytes; experiment: IL-1β-induced Mmp3, Mmp13, Cox2 expression in chondrocytes (qRT-PCR, western blotting); assay type: cell-based; conditions: IL-1β 1 ng/mL
Protocol: NCD was supplied by Benobio Co (Gyeonggi-do, Korea), and IL‐1β was purchased from GenScript (Piscataway, NJ, USA). NCDs were dissolved in phosphate-buffered saline (PBS) for oral administration or IA injection.
Total RNA was extracted from mouse articular chondrocytes using TRIzol (Molecular Research Center Inc., Cincinnati, OH, USA) and the primers used were for the MMPs, glyceraldehyde 3-phosphate dehydrogenase (GAPDH), and Cox2. Primers utilized were as follows: mouse Mmp3 (5′-TCCTGATGTTGGTGGCTTCAG-3′ and 5′-TGTCTTGGCAAATCCGGTGTA-3′); mouse Mmp13 (5′-TGATGGACCTTCTGGTCTTCTGG-3′ and 5′-CATCCA CATGG TTGGG AAGT TCT-3′); mouse Cox2 (5′-GGTCTGGTGCCTGGTCTGATGAT-3′ and 5′-GTCCTTTCAAGGAGAATGGTGC-3′); mouse Gapdh (5′-TCACT GCCAC CCAGA AGAC-3′ and 5′-TGTAG GCCAT GAGGT CCAC-3′). Gene transcript expression levels were normalized against that of Gapdh by qRT-PCR using SYBR premix ExTaq (Takara Bio, Shiga, Japan). Results were expressed as fold-changes relative to the expression in the control group ([20]).
The total protein was extracted from the primary cultured chondrocytes using a lysis buffer, containing 150 mM NaCl, 1% NP-40, 50 mM Tris/HCl (pH 8.0), 0.2% sodium dodecyl sulfate, and 5 mM NaF, supplemented with protease and phosphatase inhibitor mixture (Roche, Madison, WI, USA). Proteins were separated using sodium dodecyl sulfate-polyacrylamide gel electrophoresis, and western blot analysis was performed using the following antibodies: goat anti‐Cox2 (sc‐1745; Santa Cruz Biotechnology, Dallas, TX, USA), mouse anti-Erk1/2 (610408; Becton Dickinson, NJ, USA), mouse anti-IκB [9242; Cell Signaling Technology (CST), MA, USA], mouse anti-p65 (8242; CST), mouse anti-phospho-p65 (3033; CST), mouse anti-p38 (#9212; CST), mouse anti-pp38 (#9215S; CST), mouse anti-c-Jun N-terminal kinase (Jnk) (#9252S; CST), mouse anti-pJnk (#9251S; CST), and mouse anti-pErk (#9101S; CST). Each signal was visualized using a SuperSignal West Dura Kit (Thermo Fisher Scientific, Waltham, MA, USA). Density analysis (AlphaEase FC 4.0; Alpha Innotech, CA, USA) was performed to calculate the relevant band intensities. Extracellular signal-regulated kinase (Erk) was used as the loading control ([28]).

[2] = test system: DMM-induced OA in C57BL/6J mice; experiment: DMM-induced OA mouse model, oral administration; assay type: in vivo
Protocol: All experiments were independently performed with at least three biological replicates to ensure reproducibility. For in vivo studies, animals were randomly assigned to treatment or control groups. To create a DMM-induced OA model, DMM surgery was performed on 12-week-old male C57BL/6J mice, following a previously reported protocol ([26]). Subsequently, NCD was either orally administered or injected in mice; the NCD (50 mg/kg) was orally administered on alternate days 4 weeks after DMM, whereas IA knee injection of NCD (10 μg) was administered once a week after 4 weeks. The mouse knee joint was processed for histological analysis 10 weeks after surgery. All experiments were independently performed with at least three biological replicates to ensure reproducibility. For in vivo studies, animals were randomly assigned to treatment or control groups. For in vitro experiments, cells were plated using a randomized layout across multi-well plates to avoid positional effects and ensure unbiased treatment assignment
All histological samples were prepared independently by two researchers. Cartilage destruction was evaluated based on Safranin O staining and scored using the OA Research Association International (OARSI) grading system ([29]). Additionally, all histological samples were analyzed through osteophyte maturity scoring and subchondral bone plate (SBP) thickness. Osteophyte maturity was scored as described previously ([30]). Briefly, the scoring was as follows: 0 = none, 1 = predominantly cartilaginous, 2 = mixed cartilage and bone with active vascular invasion and endochondral ossification, 3 = predominantly bone. SBP thickness was measured to analyze subchondral bone sclerosis. All experiments were independently performed over at least three replicates. […] For each sample, measurements were performed on serial sections, and the mean value was calculated for analysis. The samples were […] by treating with 0.5 M ethylenediamine tetraacetic acid (pH 8.0) for 2 weeks. Next, mouse knee joint samples were fixed using 4% paraformaldehyde and embedded in paraffin. The paraffin-embedded samples were cut into 5-μm sections and fixed on glass slides. The tissue sections were then hydrated using a graded ethanol series, which removed paraffin and xylene. Mouse knee joint sections were immunohistochemically analyzed using anti-Mmp3 (ab52915, Abcam, Cambridge, UK), anti-Mmp13 (ab51072, Abcam), and anti-Cox2 (66351-I-Ig, ProteinTech, Rosemont, ILllinois, USA).

liver, lungs of mice = experiment: In vivo organ histology after oral or IA administration
[3] = NCD 10, 50, 100 µM, 12 h, qRT-PCR
[4] = oral 50 mg/kg on alternate days from 4 weeks after DMM, 10 weeks after surgery, vs vehicle

SMILES: CNC(=O)CC1C(=O)NCCN1Cc1ccc(-c2ccccc2-c2cccc3c2CN(C)C3=O)o1 (stereo not drawn) [NCD, N-methyl-2-(1-((5-(2-(2-methyl-1-oxoisoindolin-4-yl)phenyl)furan-2-yl)methyl)-3-oxopiperazin-2-yl)acetamide]
- Cox2 mRNA expression [1, 3]: marked, concentration-dependent suppression
- Mmp3 mRNA expression [1, 3]: marked, concentration-dependent suppression
- Mmp13 mRNA expression [1, 3]: marked, concentration-dependent suppression
- mRNA and protein levels of Cox2 ([1]; NCD 50 and 100 µM): substantially reduced
- OARSI score [2, 4]: decrease
- Osteophyte maturity [2, 4]: decrease
- SBP thickness [2, 4]: decrease
- Expression of Mmp3, Mmp13 and Cox2 in articular cartilage (immunohistochemistry) ([2]; oral 50 mg/kg, DMM mice): markedly reduced expression levels
- NITEGE levels (aggrecan degradation neoepitope) ([2]; oral 50 mg/kg, DMM mice): significantly reduced
- Type II collagen (immunohistochemistry) ([2]; oral 50 mg/kg, DMM mice): restored
- Cytotoxicity in the liver or lungs (histological analyses) (liver, lungs of mice; oral and intra-articular administration): no apparent cytotoxicity
- Organ toxicity in vivo (liver, lungs of mice; oral or IA routes): without causing detectable organ toxicity
